We go through ten compounds from US11618883B2, “Method for producing retinal pigment epithelial cells” (SUMITOMO PHARMA CO., LTD., priority 2017, dated 2023).

Assay [1] relates to human iPS cells (201B7, 1231A3, Ff-I01, QHJI01 lines). The assay is described as follows: Production of RPE cells including MEK inhibitor or FGF receptor inhibitor treatment step (first step); observation of brown-black cell population. Format: cell-based. From the text: In one embodiment, to study the effect of the FGF receptor inhibitor in a medium free of a factor for maintaining undifferentiated state (bFGF), STEMSURE™ hPSC Medium Δ (Wako Pure Chemical Industries, Ltd.) (hereinafter STEMSURE™ hPSC Medium Δ w/o bFGF) not added with bFGF was used.
2014 Jan. 8; 4: 3594”. The medium used was STEMFIT™ AK03N medium (Ajinomoto Co., Inc.) (hereinafter AK03N medium).

Assay [2] concerns human iPS cells (QHJI01 line). The assay is described as follows: Differentiation induction effect of Nodal and/or Wnt signal transduction pathway inhibitor in the second step. Conditions: for emergence of cells showing typical characteristics of RPE cell: second step days 1-12 with 10 μM Y-27632 plus 5 μM SB-431542 and/or 3 μM CKI-7, first step 1 μM PD0325901, day 43. Format: cell-based.
Protocol: Production of retinal pigment epithelial (RPE) cells including an MEK inhibitor treatment step was performed as follows. iPS cells under culture for maintaining undifferentiated state were treated with 0.5×TRYPLE™ Select cell dissociation solution (mixture of equal amounts of TRYPLE™ Select cell dissociation solution (Life Technologies) and 0.5 mM EDTA/PBS(−)), dissociated using a cell scraper, dispersed to single cells by pipetting, seeded in a 6-well culture plate coated with IMATRIX™-511 laminin 511 E8 fragment (Nippi) (0.5 μg/cm^2) at 2.0×10^4 cells per 1 well and cultured in a ROCK inhibitor [10 μM Y-27632 (Wako Pure Chemical Industries, Ltd.)]-containing AK03N medium under 37° C., 5% CO2 conditions. On the next day of seeding, PD0325901 (SIGMA) (final concentration 1 μM) as MEK inhibitor was added to the AK03N medium (start of the first step) and the cells were exposed thereto for 6 days (completion of the first step). Thereafter, the cells were treated with 0.5×TRYPLE™ Select cell dissociation solution, dissociated using a cell scraper, dispersed to single cells by pipetting, seeded in a 12-well culture plate coated with IMATRIX™-511 laminin 511 E8 fragment (0.5 μg/cm^2) at 0.8×10^5 cells per 1 well and cultured under 37° C., 5% CO2 conditions (start of the second step). In the second step, the following 3 kinds of media were used. […]

Assay [3] has as its system human iPS cells (QHJI01 line). The assay is described as follows: Production of RPE cells from iPS cells with a ROCK inhibitor or caspase inhibitor in the second step; visual observation of brown-black cell population. Format: cell-based.
Assay [4] concerns human iPS cells (1231A3 line). The experiment in a line: Production of RPE cells from iPS cells with a ROCK inhibitor in the second step; visual observation of brown-black cell population. The format is cell-based. Conditions: for concentration at which emergence of a brown-black cell population could be visually confirmed: second step. Here is the method:
2014 Jan. 8; 4: 3594”. The medium used was […] A[…] medium (Ajinomoto Co., Inc.) (hereinafter AK03 medium). […] On the next day of seeding, FGF receptor inhibitor PD173074 (SIGMA) (final concentration 100 nM) was added to the A[…] medium (start of the first step), the medium was exchanged with A[…] medium added with an FGF receptor inhibitor every other day, and the cells were exposed to the FGF receptor inhibitor for 6 days in total (completion of the first step). […] On the first day of culture, A[…] (final concentration 10 μM) or A[…] medium without addition of Y-27632 as a comparison target was used. […] 2014 Jan. 8; 4: 3594”. The medium used was […] A[…] medium (Ajinomoto Co., Inc.) (hereinafter A[…] medium). […] On the next day of seeding, FGF receptor inhibitor PD173074 (SIGMA) (final concentration 100 nM) or MEK inhibitor PD0325901 (SIGMA) (final concentration 1 μM) was added to the A[…] medium (start of the first step), the medium was exchanged with A[…] medium added with an FGF receptor inhibitor or MEK inhibitor every other day, and the cells were exposed to FGF receptor inhibitor or MEK inhibitor for 6 days in total (completion of the first step). […] In the case of 1231A3 line, on the first day of culture, A[…] to a final concentration of 1 μM, 3 μM, 10 μM, 30 μM or 100 μM or, as a comparison target, A[…] medium without addition of Y-27632 was used. […] 2014 Jan. 8; 4: 3594”. The medium used was […] A[…] medium (Ajinomoto Co., Inc.) (hereinafter A[…] medium). […] On the next day of seeding, FGF receptor inhibitor PD173074 (SIGMA) (final concentration 100 nM) was added to the A[…] medium (start of the first step), the medium was exchanged every other day using A[…] medium added with FGF receptor inhibitor, and the cells were exposed to FGF receptor inhibitor for 6 days in total (completion of the first step). […] In the case of 1231A3 line, on the first day of culture, A[…] medium added with ROCK inhibitor Fasudil (Wako Pure Chemical Industries, Ltd.) to a final concentration of 10 μM, 30 μM or 100 μM or, as a comparison target, A[…] medium without addition of Fasudil was used.

The next assay has as its system RPE65, BEST1, CRALBP. The experiment in a line: RT-PCR of retinal pigment epithelial cell markers after MEK inhibitor or FGF receptor inhibitor treatment step. The format is cell-based, human. Conditions: first step 6 days (1 μM PD0325901 or 100 nM PD173074); 1231A3 line; day 43; bands very thin when untreated. Here is the method: 2014 Jan. 8; 4: 3594”. The medium used was […] A[…] medium (Ajinomoto Co., Inc.) (hereinafter A[…] medium). […] After observation on day 43 of culture, the cells were collected, RNA was extracted and RT-PCR was performed. RNEASYTM Micro Kit (QIAGEN) was used for RNA extraction, Oligo(dT)12-18Primer (Invitrogen) and SUPERSCRIPTTM III Reverse Transcriptase (Invitrogen) were used for reverse transcription reaction, and BLEND TAQTM-Plus-(TOYOBO) was used for PCR. The primer sequences of RPE65, BEST1, CRLBP, GAPDH are as described below. […] NO: 1), […] NO: 2), […] NO: 3), […] NO: 4), CRALBP-[…] NO: 5), CRALBP-[…] NO: 6), […] NO: 7), […] NO: 8). The number of cycles of the PCR reaction was 30 cycles for RPE65, BEST1, GAPDH, and 35 cycles for CRALBP. PCR products were detected as a single band by agarose gel electrophoresis at near 369 bp for RPE65, near 261 bp for BEST1, near 341 bp for CRALBP, and near 452 bp for GAPDH. As a positive control, primary human RPE (hRPE) was used and, as a negative control, iPS cells (undifferentiated iPSC) cultured under conditions for maintaining undifferentiated state were used.

Setting [5] is: first step 6 days: 1 μM PD0325901, 1.5, 3, 6 μM PD184352, 5, 10 μM U0126, 0.3 μM TAK-733, 0.3 μM AZD-8330, QHJI01 and 1231A3 lines, day 49 and day 50.

As for `Cc1cc(C(=O)NOCCO)c(Nc2ccc(I)cc2F)n(C)c1=O` [AZD-8330, 2-(2-fluoro-4-iodophenylamino)-N-(2-hydroxyethoxy)-1,5-dimethyl-6-oxo-1,6-dihydropyridine-3-carboxamide], the “emergence of a brown-black cell population” value in assay [1] (setting [5]) is reported as “could be confirmed over a wide area”.

Consider `NC(=O)c1ccc(-c2nc(-c3ccc4c(c3)OCO4)c(-c3ccccn3)[nH]2)cc1` [NODALi, 4-[4-(1,3-Benzodioxol-5-yl)-5-(pyridin-2-yl)-1H-imidazol-2-yl]benzamide], for which, in assay [2], the “emergence of cells showing typical characteristics of RPE cell” value is on record as “same level”.

Regarding `O=S(=O)(c1cccc2cnccc12)N1CCCNCC1` [Fasudil, 1-(5-oquinolinesulfonyl)homopiperazine], in assay [3] (10 μM in second step, 1.0×10^6 cells per well, first step FGF receptor inhibitor, day 48 of culture), the “emergence of a brown-black cell population” value is “could be visually confirmed”. Besides, in assay [4] (tested 10, 30, 100 μM, 2.0×10^6 cells per well, first step FGF receptor inhibitor, day 41 of culture), the “concentration at which emergence of a brown-black cell population could be visually confirmed” value is given as “not less than 10 μM”.

Take `O=C(NOC[C@H](O)CO)c1ccc(F)c(F)c1Nc1ccc(I)cc1F` [PD0325901, N-[(2R)-2,3-Dihydroxypropoxy]-3,4-difluoro-2-[(2-fluoro-4-iodophenyl)amino]-benzamide]: in the assay on RPE65, BEST1, CRALBP, the “RT-PCR bands of retinal pigment epithelial cell markers RPE65, BEST1, CRALBP” value is given as “clear bands could be confirmed”. In addition, the “emergence of a brown-black cell population” value in assay [1] (1 μM PD0325901, exposure for 3 days and 6 days, 1231A3 line, day 37 of culture) was “could be confirmed over a wide area”; in assay [1] (PD0325901 1 μM (AK03 medium) or 0.03 μM (ESSENTIAL8 medium), 6 days first step, 201B7 and 1231A3 lines, 38 to 42 days of culture), “could be confirmed over a wide area”; in assay [1] (first step 6 days (1 μM PD0325901 or 100 nM PD173074), 1231A3 line, day 43 of culture), “could be confirmed over a wide area”; in assay [1] (first step 6 days (1 μM PD0325901 or 100 nM PD173074), Ff-I01 and QHJI01 lines, day 43 of culture), “could be confirmed over a wide area”; in assay [1] (setting [5]), “could be confirmed over a wide area”. For the same compound, the “emergence of colored cell population” value in assay [1] (1 μM PD0325901, exposure for 13 days, 1231A3 line, day 37 of culture) is recorded as “sufficient emergence of colored cell population was also confirmed”. Besides, the “cells showing typical characteristics of RPE cell” value in assay [1] (1 μM PD0325901, exposure for one day, 1231A3 line, day 37 of culture) is “almost no cell”. For the same compound, the “concentrations at which emergence of a brown-black cell population could be confirmed over a wide area” value in assay [1] (PD0325901, all concentrations studied, first step 6 days, QHJI01 line, day 36 and day 49 of culture) was in the range of 0.25 to 4 µM. For the same compound, the “emergence of RPE cells showing typical characteristics of RPE cell” value in assay [1] (first step 6 days (1 μM PD0325901 or 100 nM PD173074), 201B7 and 1231A3 lines, 38 to 47 days of culture) is recorded as “could be confirmed”.

As for `Cc1c[nH]c(C=C2C(=O)Nc3ccccc32)c1CCC(=O)O` [SU5402, 2-[(1,2-Dihydro-2-oxo-3H-indol-3-ylidene)methyl]-4-methyl-1H-pyrrole-3-propanoic acid], the “emergence of a brown-black cell population” value in assay [1] (first step 6 days: 100 nM PD173074, 5, 10, 20 μM SU5402, QHJI01 and 1231A3 lines, day 49 of culture) was “could be confirmed over a wide area”.

Turning to `NCCNS(=O)(=O)c1ccc(Cl)c2ccncc12` [WNTi, N-(2-Aminoethyl) chloroisoquinoline-8-sulfonamide], in assay [2] (second step days 1-12, single agent 3 μM CKI-7 with 10 μM Y-27632, day 43), the “brown-black area in the whole well” value is “decreased”. For the same compound, the “emergence of cells showing typical characteristics of RPE cell” value in assay [2] is given as “sufficient number of cells”.

Consider `N#CC(=C(N)Sc1ccccc1N)C(C#N)=C(N)Sc1ccccc1N` [U0126, 1,4-Diamino-2,3-dicyano-1,4-bis[2-aminophenylthio]butadiene], for which the “emergence of a brown-black cell population” value in assay [1] (setting [5]) is given as “could be confirmed over a wide area”.

On to `O=C(NOCC1CC1)c1ccc(F)c(F)c1Nc1ccc(I)cc1Cl` [PD184352, (2-[(2-Chloro-4-iodophenyl)amino]-N-cyclopropylmethoxy)-3,4-difluorobenzamide], for which the “emergence of a brown-black cell population” value in assay [1] (setting [5]) was “could be confirmed over a wide area”.

With `COC(=O)C[C@H](NC(=O)[C@H](C)NC(=O)[C@@H](NC(=O)OCc1ccccc1)C(C)C)C(=O)CF` (racemic) [Z-VAD-FMK, benzyloxycarbonyl-Val-Ala-DL-Asp(OMe)-fluoromethylketone], the “emergence of a brown-black cell population” value in assay [3] (20 μM in second step, 2.0×10^6 cells per well, first step MEK inhibitor, day 65 or 67 of culture) is given as “could be visually confirmed”.

`C[C@@H](N)[C@H]1CC[C@H](C(=O)Nc2ccncc2)CC1` [Y-27632, trans-4-[(1R)-1-aminoethyl]-N-4-pyridinylcyclohexanecarboxamide]: the “exposure period at which emergence of a brown-black cell population could be visually confirmed” value in assay [3] (10 μM in second step, tested 3-20 days, first step MEK inhibitor, day 49 of culture) was “not less than 6 days”. The “emergence of a brown-black cell population” value is listed as “confirmed only slightly” in assay [3] (10 μM, 3 days of exposure in second step, first step MEK inhibitor, day 49 of culture); “could be visually confirmed” in assay [3] (low concentration (1 μM) in second step, 2.0×10^6 cells per well (10 times general number), first step FGF receptor inhibitor or MEK inhibitor, day 50); “could be visually confirmed” in assay [4] (10 μM in second step (days 1-13) after FGF receptor inhibitor (100 nM PD173074) first step, day 42 of culture). Further, the “concentration at which emergence of a brown-black cell population could be visually confirmed” value in assay [3] (second step, tested 1-100 μM, first step FGF receptor inhibitor or MEK inhibitor, day 50 of culture) is on record as “not less than 3 μM”; in assay [4] (tested 1-100 μM, first step FGF receptor inhibitor or MEK inhibitor, day 48 of culture), “not less than 10 μM”.
